In US12065468B2, “Heme-binding small peptide” (priority 2021, dated 2024):
“Also recorded” adds a separate entry of the source.

Tested on: Sinorhizobium meliloti
Test: S. meliloti growth curve
Assay type: cell-based
Conditions: increasing amounts of peptide; minimal medium
Protocol: Growth curve: All growth curve experiments were performed in a Tecan SPARK 10M microplate reader using polystyrene flat bottomed, non-treated, sterile 96 well plates. Overnight cultures grown in LBMC were washed and were subcultured (1:100 dilution) in minimal medium supplemented with respective iron concentrations. The plates were programed to continuously shake at 150 rpm and temperature maintained at 30° C. Optical density was measured at 600 nm every 60 minutes.

RNGCIVDPRCPYQQCRRPLYCRRR [NCR247] was tested, and the “inhibition of growth of S. meliloti (bacteriostatic effect)” value was “reduction in growth rate; also recorded: inhibits the growth of Sinorhizobium meliloti”.
